Reference: US8835134B2, “Cycloastragenol monoglucoside, preparation, pharmaceutical composition and application thereof” (Tianjin Institute of Pharmaceutical Research, priority 2007, dated 2014)

Assays:
[1] = system: isolated rat heart; assay: Cardiotonic effects on isolated heart (Langendorff perfusion); parameters: species or system Wistar rats
Method: Wistar rats (250-280 g) were anesthetized with chloral hydrate (360 mg/kg intraperitoneally) and heparinized with sodium heparin (1 mg) via sublingual vein. After opening the chest cavity, the hearts were quickly excised and immersed in cold Krebs-Henseleit (K-H) solution. Hearts were retrogradely perfused with 74 centimeters of water pressure via the aorta in a Langendorff apparatus with K-H solution, which was bubbled with a mixture of 95% O2 and 5% CO2. The suture fixed on cardiac apex was connected to a tension transducer which was connected to a polygraph (RM6300, Nihon Kohden, Japan) and a data acquisition workstation (MP150, BIOPAC Systems, USA) to a computer running Acknowledge (version 3.7.1).

[2] = Solubility; format: physicochemical

SMILES: CC(C)(O)[C@@H]1CC[C@](C)([C@H]2[C@@H](O)C[C@@]3(C)C4C[C@H](OC5OC(CO)C(O)C(O)C5O)C5C(C)(C)[C@@H](O)CC[C@@]56C[C@@]46CC[C@]23C)O1 (stereo partly drawn) [CMG, Cycloastragenol-6-O-β-D-glucoside]
- Contractility Variation (%) ([1]; 1 × 10^−7 mol/L): 17.08 ± 7.19^++ %
- Contractility after administration ([1]; 1 × 10^−7 mol/L): 2.06 ± 0.59 g
- Contractility before administration ([1]; 1 × 10^−7 mol/L): 1.77 ± 0.52 g
- HR Variation (%) ([1]; 1 × 10^−7 mol/L): −38 ± 22^++ %
- HR after administration ([1]; 1 × 10^−7 mol/L): 92 ± 35 bpm
- HR before administration ([1]; 1 × 10^−7 mol/L): 145 ± 16 bpm
- peak derivatives of contractility Variation (%) ([1]; 1 × 10^−7 mol/L): 18 ± 6^++ %
- peak derivatives of contractility Δ T/S after administration ([1]; 1 × 10^−7 mol/L): 86 ± 13 g/s
- peak derivatives of contractility Δ T/S before administration ([1]; 1 × 10^−7 mol/L): 73 ± 11 g/s
- peak derivatives of diastolic force Variation (%) ([1]; 1 × 10^−7 mol/L): 14 ± 8^+ %
- peak derivatives of diastolic force Δ T/S after administration ([1]; 1 × 10^−7 mol/L): -51 ± 14 g/s
- peak derivatives of diastolic force Δ T/S before administration ([1]; 1 × 10^−7 mol/L): -45 ± 14 g/s
- Contractility Variation (%) ([1]; 1 × 10^−8 mol/L): 7.72 ± 8.03%
- Contractility after administration ([1]; 1 × 10^−8 mol/L): 1.97 ± 0.61 g
- Contractility before administration ([1]; 1 × 10^−8 mol/L): 1.81 ± 0.49 g
- HR Variation (%) ([1]; 1 × 10^−8 mol/L): −17 ± 18%
- HR after administration ([1]; 1 × 10^−8 mol/L): 124 ± 25 bpm
- HR before administration ([1]; 1 × 10^−8 mol/L): 156 ± 51 bpm
- peak derivatives of contractility Variation (%) ([1]; 1 × 10^−8 mol/L): 6 ± 8%
- peak derivatives of contractility Δ T/S after administration ([1]; 1 × 10^−8 mol/L): 76 ± 19 g/s
- peak derivatives of contractility Δ T/S before administration ([1]; 1 × 10^−8 mol/L): 71 ± 15 g/s
- peak derivatives of diastolic force Variation (%) ([1]; 1 × 10^−8 mol/L): 7 ± 9%
- peak derivatives of diastolic force Δ T/S after administration ([1]; 1 × 10^−8 mol/L): -47 ± 16 g/s
- peak derivatives of diastolic force Δ T/S before administration ([1]; 1 × 10^−8 mol/L): -44 ± 15 g/s
- Contractility Variation (%) ([1]; 3 × 10^−8 mol/L): 5.84 ± 2.92%
- Contractility after administration ([1]; 3 × 10^−8 mol/L): 1.92 ± 0.72 g
- Contractility before administration ([1]; 3 × 10^−8 mol/L): 1.83 ± 0.72 g
- HR Variation (%) ([1]; 3 × 10^−8 mol/L): −13 ± 12%
- HR after administration ([1]; 3 × 10^−8 mol/L): 128 ± 23 bpm
- HR before administration ([1]; 3 × 10^−8 mol/L): 150 ± 41 bpm
- peak derivatives of contractility Variation (%) ([1]; 3 × 10^−8 mol/L): 11 ± 9^+ %
- peak derivatives of contractility Δ T/S after administration ([1]; 3 × 10^−8 mol/L): 77 ± 16 g/s
- peak derivatives of contractility Δ T/S before administration ([1]; 3 × 10^−8 mol/L): 70 ± 16 g/s
- peak derivatives of diastolic force Variation (%) ([1]; 3 × 10^−8 mol/L): 10 ± 8%
- peak derivatives of diastolic force Δ T/S after administration ([1]; 3 × 10^−8 mol/L): -51 ± 18 g/s
- peak derivatives of diastolic force Δ T/S before administration ([1]; 3 × 10^−8 mol/L): -46 ± 15 g/s
- Contractility ([1]; isolated rat heart): increased
- Heart rate ([1]; isolated rat heart): decreased
- Peak derivatives of contractility ([1]; isolated rat heart): increased
- Peak derivatives of diastolic force ([1]; isolated rat heart): increased
- cardiotonic effect (conclusion) ([1]; isolated rat heart): exhibited cardiotonic effects
- solubility [2]: 40-50 mg/100 ml

SMILES: CC(C)(O)[C@@H]1CC[C@](C)([C@H]2[C@@H](O)C[C@@]3(C)[C@@H]4C[C@H](O[C@@H]5O[C@H](CO)[C@@H](O)[C@H](O)[C@H]5O)[C@H]5C(C)(C)[C@@H](O[C@@H]6OC[C@@H](O)[C@H](O)[C@H]6O)CC[C@@]56C[C@@]46CC[C@]23C)O1 [astragaloside IV, reference compound]
- Contractility Variation (%) ([1]; 1 × 10^−7 mol/L): 24.56 ± 12.44^++ %
- Contractility after administration ([1]; 1 × 10^−7 mol/L): 1.73 ± 0.42 g
- Contractility before administration ([1]; 1 × 10^−7 mol/L): 1.42 ± 0.41 g
- HR Variation (%) ([1]; 1 × 10^−7 mol/L): −24 ± 17^+ %
- HR after administration ([1]; 1 × 10^−7 mol/L): 117 ± 52 bpm
- HR before administration ([1]; 1 × 10^−7 mol/L): 151 ± 60 bpm
- peak derivatives of contractility Variation (%) ([1]; 1 × 10^−7 mol/L): 21 ± 19^+ %
- peak derivatives of contractility Δ T/S after administration ([1]; 1 × 10^−7 mol/L): 78 ± 14 g/s
- peak derivatives of contractility Δ T/S before administration ([1]; 1 × 10^−7 mol/L): 66 ± 13 g/s
- peak derivatives of diastolic force Variation (%) ([1]; 1 × 10^−7 mol/L): 15 ± 9^+ %
- peak derivatives of diastolic force Δ T/S after administration ([1]; 1 × 10^−7 mol/L): -50 ± 11 g/s
- peak derivatives of diastolic force Δ T/S before administration ([1]; 1 × 10^−7 mol/L): -44 ± 11 g/s
- Contractility Variation (%) ([1]; 1 × 10^−8 mol/L): 6.00 ± 9.25%
- Contractility after administration ([1]; 1 × 10^−8 mol/L): 1.94 ± 0.43 g
- Contractility before administration ([1]; 1 × 10^−8 mol/L): 1.83 ± 0.38 g
- HR Variation (%) ([1]; 1 × 10^−8 mol/L): −6 ± 5%
- HR after administration ([1]; 1 × 10^−8 mol/L): 144 ± 34 bpm
- HR before administration ([1]; 1 × 10^−8 mol/L): 152 ± 30 bpm
- peak derivatives of contractility Variation (%) ([1]; 1 × 10^−8 mol/L): 6 ± 15%
- peak derivatives of contractility Δ T/S after administration ([1]; 1 × 10^−8 mol/L): 81 ± 19 g/s
- peak derivatives of contractility Δ T/S before administration ([1]; 1 × 10^−8 mol/L): 76 ± 18 g/s
- peak derivatives of diastolic force Variation (%) ([1]; 1 × 10^−8 mol/L): 8 ± 8%
- peak derivatives of diastolic force Δ T/S after administration ([1]; 1 × 10^−8 mol/L): -46 ± 9 g/s
- peak derivatives of diastolic force Δ T/S before administration ([1]; 1 × 10^−8 mol/L): -43 ± 10 g/s
- Contractility Variation (%) ([1]; 3 × 10^−8 mol/L): 6.98 ± 8.82%
- Contractility after administration ([1]; 3 × 10^−8 mol/L): 1.88 ± 0.40 g
- Contractility before administration ([1]; 3 × 10^−8 mol/L): 1.78 ± 0.46 g
- HR Variation (%) ([1]; 3 × 10^−8 mol/L): −14 ± 13%
- HR after administration ([1]; 3 × 10^−8 mol/L): 145 ± 65 bpm
- HR before administration ([1]; 3 × 10^−8 mol/L): 167 ± 64 bpm
- peak derivatives of contractility Variation (%) ([1]; 3 × 10^−8 mol/L): 12 ± 7^+ %
- peak derivatives of contractility Δ T/S after administration ([1]; 3 × 10^−8 mol/L): 76 ± 18 g/s
- peak derivatives of contractility Δ T/S before administration ([1]; 3 × 10^−8 mol/L): 69 ± 19 g/s
- peak derivatives of diastolic force Variation (%) ([1]; 3 × 10^−8 mol/L): 10 ± 11%
- peak derivatives of diastolic force Δ T/S after administration ([1]; 3 × 10^−8 mol/L): -45 ± 12 g/s
- peak derivatives of diastolic force Δ T/S before administration ([1]; 3 × 10^−8 mol/L): -41 ± 12 g/s
- Contractility ([1]; isolated rat heart): increased
- Heart rate ([1]; isolated rat heart): decreased
- Peak derivatives of contractility ([1]; isolated rat heart): increased
- Peak derivatives of diastolic force ([1]; isolated rat heart): increased
- solubility [2]: 2-4 mg/100 ml
